Values of other authors, collected in patent US10822295B2, “Menaquinol compositions and methods of treatment” (Epizon Pharma, Inc., priority 2018, dated 2020).

Tests used:
[1] = test system: incidence of fractures; details: in vivo
[2] = test system: normal blood coagulation; details: compared to vitamin K1 and MK-4
[3] = compared to MK-4

Structure (SMILES)	incidence of fractures [1]	effects on normal blood coagulation [2]	half-life in serum [3]
CC(C)=CCC/C(C)=C/CC/C(C)=C/CC/C(C)=C/CC1=C(C)C(=O)c2ccccc2C1=O [MK-4, menaquinone-4]	decrease the incidence of fractures	–	–
CC(C)=CCC/C(C)=C/CC/C(C)=C/CC/C(C)=C/CC/C(C)=C/CC/C(C)=C/CC/C(C)=C/CC1=C(C)C(=O)c2ccccc2C1=O [MK-7, menaquinone-7]	–	greater and longer lasting	long half-life
